In assay [1] the test system is tumor-infiltrating lymphocytes in B16F10 graft. Put plainly: Flow cytometry of tumor-infiltrating lymphocytes, B16F10 graft. It counts as in vivo, C57BL/6 mice. How it is done:
Tumors were minced with scissors, and then digested with the digestion buffer (RPMI 1640 medium, 5% FBS, 1% penicillin-streptomycin, 25 mM HEPES, and 300 U collagenase (Sigma C0130)) on a shaker at 37 °C for 2 hours. Single cells were prepared through a 70 μm cell strainer. Erythrocytes were removed by incubation in red blood cell lysis buffer (R7757, Sigma) at room temperature for 5 min. The cells were prepared in PBS (with concentration of ~2 × 10^7) for studies.
The single-cell suspension were fixed with 2% paraformaldehyde solution (J19943K2, Thermo Scientific). CD45 + T cells were selected from single-cell suspension (about 2 × 10^7 cells digest from […] tumor tissue) by flow cytometry with the follow antibodies (anti-mouse CD45; BD pharmingen, 561875). And then the cells were stained anti-mouse CD3e PE (145-2C11, BD pharmingen, 553063), anti-mouse CD4 FITC (RM4-5, BD pharmingen, 553046), anti-mouse CD4 PE/Cy7 (GK1.5, BioLegend, 100421), anti-mouse CD8 FITC (53-6.7, BD pharmingen, 553031), anti-mouse CD8a APC/Cy7 (53-6.7, BioLegend 100713), anti-mouse IFN-γ PE (XMG1.2, eBioscience, 12731181), anti-mouse CD69 PE (H1.2F3, Biolegend, 104508), anti-mouse CD25 Alexa Fluor 488 (PC61.5, eBioscience, 53025182), anti-mouse CD107a-V450 (1D4B, BD, 560648), anti-human/mouse granzyme B FITC (GB11, BioLegend, 515403). […]
On the technique in general: Flow cytometry measures light scatter and fluorescence of single cells or particles in a stream.

Assay [2] concerns H3K27me3 and H3K27ac in melanoma cells (B16F10, PM). Put plainly: Western blot of epigenetic modifications of H3. It counts as cell-based, mouse. As for the experimental part:
The lysis buffer (50 mM Tris pH 7.4, 1% Triton X-100, 0.5 mM EDTA, 0.5 mM EGTA, 150 mM NaCl, 10% glycerol, 1 mM phenylmethylsulfonyl fluoride and complete protease inhibitor cocktail (Roche)) were used to prepare the whole-cell lysates, which was followed by homogenization and centrifuge (14,000 rpm for 15 min at 4 °C). Pierce BCA Protein Assay Kit (Thermo Fisher Scientific) was used to detect protein concentration. After SDS-PAGE separation and PVDF membrane (BIO-RAD) transfer of the proteins, the specific primary was probed at 4 °C for overnight, before incubated with corresponding horseradish peroxidase (HRP)-conjugated 2nd antibodies. Pierce ECL Western Blotting Substrate (Thermo Fisher Scientific) was used for protein detection. Antibodies were: anti-Mi-2β(1:1000), anti-EZH2 (ab70469, Abcam) (1:1000), anti-β-actin-peroxidase antibody (AC15) (1:5000) and anti-rabbit secondary antibody (A-4914) (1:10,000). Antibody information have shown in Supplementary data 3.
Supplementary Figure 10. […] A mouse survival curve is shown, with log-rank test for mouse survival P value. b,c The epigenetic modifications of H3 (H3K27ac, H3K27me1 and H3K27me3) were measured in B16F10 cells stimulated with GSK126 or Z36-MP5 as indicated (n = 3, independent experiments). d The amount of secreted Cxcl9 and Cxcl10 was measured by ELISA in […]
(Immunoblotting shows a protein as a band on a membrane.)

In the next assay the test system is B16F10 cells. The experiment in a line: CCK-8 cell proliferation. The format is cell-based, mouse. Particulars: CCK-8, B16F10 cells. As for the experimental part:
To test whether Z36-MP5 affects cell proliferation, cells were seeded into 96-well plates at a density of 1 × 10^3 cells/100 μl per well. CCK-8 was used to detect changes in proliferation ability after 3 days of treatment with Z36-MP5 (25 μM). To test whether Mi-2β expression in T cells or treatment of T cells with Z36-MP5 affects the ability of T cells to kill tumor cells, Mi-2β in Pmel-1 T cells was manipulated or Pmel-1 cells were exposed to Z36-MP5 (25 μM) for 24 hrs. The number of cells was quantified. One thousand Pmel-1 T cells were then co cultured with 1000 tumor cells for 24 hrs, and the number of tumor cells was counted.
Supplementary Figure 8. In vitro assay for Mi-2β inhibitors. a The body weight changes of C57BL/6J mice treated with Z36-MP5 (30 mg/kg/day) for 2 weeks. Data are mean ± SEM (n=5). b H&E staining of tissues in C57BL/6J mice treated with or without Z36 -MP5 (30 mg/kg/day) for 2 weeks. […]
The growth of tumor grafts was measured. n = 5. g Mice bearing B16F10 cell s were treated with MS177 (100 mg/kg, 5 days) and then Z36 -MP5 (30 mg/kg/day) or vehicles, accompanied with anti -PD-1 antibody […]

For assay [3], the target named is T1, RSK3(Kin.Dom.2-C-terminal) (Homo sapiens, UniProt Q15349).
T1 construct: gene RPS6KA2; Kin.Dom.2-C-terminal
The experiment in a line: biochemical. More on the design: KINOMEscan active-site competition binding panel (468 kinase assays), per cent of control at 1000 nM. The conditions noted are these: KINOMEscan per cent of control (binding competition); read-out: Percent Control. The source says:
(§1) Figure S7 / Percent Control

For another assay, the target named is T2, MEK2 (Homo sapiens, UniProt P36507).
T2 construct: gene MAP2K2
The experiment in a line: biochemical. Particulars: KINOMEscan per cent of control (binding competition); read-out: Percent Control. More on the design: KINOMEscan active-site competition binding panel (468 kinase assays), per cent of control at 1000 nM.
From the text: as §1

For another assay, the target named is MARK1 (Homo sapiens, UniProt Q9P0L2). Put plainly: biochemical. The conditions noted are these: KINOMEscan per cent of control (binding competition); read-out: Percent Control. On the set-up: KINOMEscan active-site competition binding panel (468 kinase assays), per cent of control at 1000 nM.
From the text: as §1

Chain of MARK1 (Q9P0L2 whole entry): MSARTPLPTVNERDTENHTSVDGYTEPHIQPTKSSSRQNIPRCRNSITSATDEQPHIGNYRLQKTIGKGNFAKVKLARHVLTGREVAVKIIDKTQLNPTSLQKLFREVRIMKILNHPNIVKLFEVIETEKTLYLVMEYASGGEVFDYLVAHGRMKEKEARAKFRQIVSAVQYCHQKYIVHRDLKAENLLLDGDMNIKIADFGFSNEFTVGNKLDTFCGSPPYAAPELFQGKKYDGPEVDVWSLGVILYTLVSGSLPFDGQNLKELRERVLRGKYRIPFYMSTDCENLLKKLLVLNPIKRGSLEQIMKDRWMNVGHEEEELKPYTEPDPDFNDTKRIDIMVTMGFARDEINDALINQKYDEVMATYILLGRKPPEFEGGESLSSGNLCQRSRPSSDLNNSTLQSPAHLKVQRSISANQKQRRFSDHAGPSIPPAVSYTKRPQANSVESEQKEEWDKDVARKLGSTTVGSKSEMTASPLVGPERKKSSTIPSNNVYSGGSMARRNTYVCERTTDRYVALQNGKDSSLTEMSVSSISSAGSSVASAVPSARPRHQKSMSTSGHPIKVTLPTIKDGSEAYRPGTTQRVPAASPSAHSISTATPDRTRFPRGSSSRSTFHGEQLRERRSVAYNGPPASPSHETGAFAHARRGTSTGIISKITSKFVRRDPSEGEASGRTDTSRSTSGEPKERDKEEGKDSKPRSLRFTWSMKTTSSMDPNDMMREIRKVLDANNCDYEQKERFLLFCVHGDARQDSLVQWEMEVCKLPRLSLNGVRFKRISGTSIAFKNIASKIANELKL
T1 sequence (Q15349 whole entry): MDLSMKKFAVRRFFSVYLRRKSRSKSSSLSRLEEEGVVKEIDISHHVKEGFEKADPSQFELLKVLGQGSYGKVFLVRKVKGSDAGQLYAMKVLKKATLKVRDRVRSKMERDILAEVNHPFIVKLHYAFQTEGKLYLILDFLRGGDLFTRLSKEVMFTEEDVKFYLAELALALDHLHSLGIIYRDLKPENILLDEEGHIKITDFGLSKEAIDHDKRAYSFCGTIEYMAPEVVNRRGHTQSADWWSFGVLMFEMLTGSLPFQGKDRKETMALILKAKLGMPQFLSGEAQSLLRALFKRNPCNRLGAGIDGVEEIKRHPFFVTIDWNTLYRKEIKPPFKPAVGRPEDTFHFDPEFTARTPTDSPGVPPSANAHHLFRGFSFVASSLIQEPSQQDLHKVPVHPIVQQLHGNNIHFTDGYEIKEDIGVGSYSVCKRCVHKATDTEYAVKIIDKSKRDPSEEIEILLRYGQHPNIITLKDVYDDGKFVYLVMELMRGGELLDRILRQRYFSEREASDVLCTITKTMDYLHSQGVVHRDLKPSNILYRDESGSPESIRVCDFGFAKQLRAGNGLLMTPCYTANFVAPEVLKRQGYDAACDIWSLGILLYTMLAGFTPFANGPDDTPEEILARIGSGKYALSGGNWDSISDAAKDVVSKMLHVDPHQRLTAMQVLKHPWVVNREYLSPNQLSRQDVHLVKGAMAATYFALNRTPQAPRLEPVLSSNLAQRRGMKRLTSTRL
T2 sequence (P36507 whole entry): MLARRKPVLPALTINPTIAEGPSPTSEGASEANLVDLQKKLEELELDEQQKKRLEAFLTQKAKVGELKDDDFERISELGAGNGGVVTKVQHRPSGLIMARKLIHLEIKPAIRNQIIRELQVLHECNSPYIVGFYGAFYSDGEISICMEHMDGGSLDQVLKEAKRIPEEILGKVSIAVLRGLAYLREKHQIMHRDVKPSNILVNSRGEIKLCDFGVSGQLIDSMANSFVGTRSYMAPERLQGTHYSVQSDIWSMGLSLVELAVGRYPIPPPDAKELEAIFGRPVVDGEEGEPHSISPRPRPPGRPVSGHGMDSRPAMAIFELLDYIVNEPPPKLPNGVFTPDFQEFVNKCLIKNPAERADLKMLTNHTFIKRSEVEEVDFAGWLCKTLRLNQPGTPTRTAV

On to `Cn1c(=O)[nH]c2ccc(-c3cccc(C(=O)NC4CCn5ccnc5C4)c3)cc21` (centres unmarked) [Z36-MP5], for which, in assay [1], the “CD8+ T-cell TILs in graft melanomas” value was “moderate increase”. For the same compound, in assay [1], the “GZMB expression and activation markers CD69, IFN-γ, CD25, CD107 in tumor-infiltrating CD8+ T cells” value is on record as “upregulation”. In addition, the H3K27ac level entry in assay [2] (PM cells, compared to GSK126 treatment) is listed as “only slightly increased”. Further, in assay [2] (melanoma cells), the “level of H3K27me3” value is “repressed”. The “proliferation of tumor cells” value in the assay on B16F10 cells is recorded as “not significantly inhibited”. Also, the remaining binding at 1 µM was 81% in assay [3], 58% on MEK2 and 92% on MARK1.

The record behind these values is publication PMC10924921, “Mi-2β promotes immune evasion in melanoma by activating EZH2 methylation” (Nature Communications, 2024).
